# Measurements: US20170071908A1, “PYRROLIDINE- SUBSTITUTED FLAVONE DERIVATIVES FOR PREVENTION OR TREATMENT OF ORAL MUCOSITIS” (priority 2012, published 2017)
# Entries after “also recorded” stand apart in the source; their conditions may differ.
# Tests used:
# [1] = test system: Radiation Induced Oral Mucositis; test: Clinical study of compound A with external beam radiotherapy in squamous cell carcinoma of oral cavity, oropharynx and hypopharynx; assay type: in vivo
# Procedure: The compound A and external beam radiotherapy (EBRT) were administered for six weeks i.e., 2 cycles of compound A and […] of radiation. One, three weeks (21 days) cycle of combination regimen comprised of dosing compound A for days 1 to 5 and EBRT on days 1 to 5, 8 to 12 and 15 to 19. The combination treatment schedule is depicted in the following table:
# A] Dose of compound A: In the Phase I part of the clinical trial, 11 patients were enrolled and 100 mg/m^2/day of compound A was determined to be the maximum tolerated dose (MTD) as two dose limiting toxicities occurred at the higher dose of 140 mg/m^2/day. Additional 12 subjects were enrolled at the MTD dose level to confirm the safety and tolerability of that dose. B] Procedure: Compound A (100 mg/m^2/day) in 5% dextrose (200 mL) was administered to 19 patients as intravenous infusion over 30 minutes on days 1 to 5 of a 21 day cycle. After about 1.5 hours of infusion of compound A, the patients received EBRT (2 Grays per day for 5 days) to the affected body parts (primary tumor site and involved cervical lymph nodes) through linear accelerator. Patients continued to receive EBRT (2 Grays per day) on days 8-12 and 15-19. On days 6, 7, 13 and 14 patients were not infused with compound A, neither were exposed to radiotherapy.
# The procedure was repeated for cycle 2.
# At investigator's discretion, some patients were given additional radiation of up to 10 additional Grays (2 Grays per day for 5 days) commencing immediately after the completion of the prescribed radiation dose of 60 Grays. Total radiation dose for spinal cord was less than 48 Grays.
# The Common Terminology Criteria for Adverse Events (version 3) (version 3, Publish Date: Aug. 9, 2006) laid down by the National Cancer Institute for oral mucositis in radiation therapy was followed.
# [2] = test system: Radiation Induced Oral Mucositis in Hamsters; test: Radiation induced oral mucositis in hamsters (left buccal pouch, single 40 Gy dose on Day 0); assay type: in vivo, Male LVG Syrian Golden Hamsters; settings: for maximum mean mucositis score: score scale 0-5
# Excerpt: Male LVG Syrian Golden Hamsters, 5 to 6 weeks old, weighing 87.7 to 97.1 g (Charles River Laboratories, US) at the commencement of the study, were used. An ear punch was used to number the animals individually. Approximately 8-10 animals were housed per cage. The animals were acclimatized for at least 3 days before experimentation. During this period, they were observed daily to ensure that the animals are in good condition. The animals that presented poor condition were rejected.
# Animals were randomly and prospectively divided into 5 groups: • i) Group 1: Animals (n=8) were administered with 5% w/v dextrose monohydrate intraperitoneally from Day 0 to Day 4 or from Day 0 to Day 9. • ii) Group 2: Animals (n=10) were administered with 10 mg/kg of compound A intraperitoneally from Day 0 to Day 4. • iii) Group 3: Animals (n=10) were administered with 20 mg/kg of compound A intraperitoneally from Day 0 to Day 4. • iv) Group 4: Animals (n=10) administered with 10 mg/kg of compound A intraperitoneally from Day 0 to Day 9. • v) Group 5: Animals (n=10) administered with 20 mg/kg of compound A intraperitoneally from day Day 0 to Day 9.
# Mucositis induction: The animals were anesthetized and the left buccal pouch was everted, fixed and isolated using a lead shield. The left buccal pouch mucosa of the animal was exposed to radiation at a rate of 2.0 Gy/minute. A single dose of radiation (40 Gy/dose) was administered to all animals on Day 0. Radiation was generated with 160 kilovolt potential source at a focal distance of 21 cm, hardened with a 0.35 mm Al filtration system. Animals of Group 2 to 5 were treated with compound A as per the schedule detailed above one hour prior to the radiation. The volume administered to all the above Groups was 0.2 mL/100 g.
# For evaluation of mucositis, the animals were anesthetized with an inhalation anesthetic and the left buccal pouch everted. Mucositis was scored visually using the following criteria for evaluation:
# Weight change and survival were also measured throughout the study.
# The significance of differences observed between the different treatment groups was evaluated by comparing the days with mucositis scores ≧3 and […] between groups using a chi-squared analysis.
# An analysis of the severity of mucositis was performed using Mann-Whitney rank sum analysis to compare the visual mucositis scores for each treatment group to the vehicle control on each day of the analysis.
# The percentage of animals in each group with ulcerative mucositis at each day of the study was evaluated.
# [3] = amifostine therapy, serious side-effect; cited from earlier work
# [4] = 19 evaluable patients, 100 mg/m^2/day i.v. plus EBRT, CTCAE version 3
smiles,measurement,setting,value
"CN1CC[C@@H](c2c(O)cc(O)c3c(=O)cc(-c4ccccc4Cl)oc23)[C@@H]1CO.Cl [Compound A, (+)-trans-2-(2-Chlorophenyl)-5,7-dihydroxy-8-(2-hydroxymethyl-1-methyl-pyrrolidin-3-yl)-chromen-4-one hydrochloride]","radioprotective effect, compared with historical rates of serious RIM (Grade 3 and above, Trotti et al.)","[1]; 19 evaluable patients, 100 mg/m^2/day i.v. plus EBRT",has radioprotective effects
same,events of mucositis reported (all grades),"[1]; 19 evaluable patients, 100 mg/m^2/day i.v. plus EBRT 2 Grays per day, 2 cycles, CTCAE version 3",five
same,events of mild mucositis (Grade 1),[1]; [4],one
same,events of moderate mucositis (Grade 2),[1]; [4],one
same,events of moderate stomatitis (Grade 2),[1]; [4],two
same,events of severe mucositis (Grade 3),[1]; [4],one
same,maximum tolerated dose (MTD),"[1]; Phase I part, intravenous infusion days 1 to 5 of a 21 day cycle, with EBRT",100 mg/m^2/day
same,dose limiting toxicities,"[1]; human, in vivo",two
same,percent of days and number of days with ulcerative mucositis (score ≧3) compared to vehicle control,[2]; 10 mg/kg from Days 0 to 9,significantly reduced
same,maximum mean mucositis score,"[2]; Group 2: 10 mg/kg intraperitoneally Day 0 to Day 4, maximum on Day 18",3.0
same,maximum mean mucositis score,"[2]; Group 3: 20 mg/kg intraperitoneally Day 0 to Day 4, maximum on Day 16",3.0
same,"mucositis severity (visual mucositis scores vs vehicle control, Mann-Whitney rank sum)","[2]; Group 4: 10 mg/kg i.p. Day 0 to Day 9, Day 18 (p=0.073) and Day 28 (p=0.064)",strong trend of lower scores
same,"mucositis severity (visual mucositis scores vs vehicle control, Mann-Whitney rank sum)","[2]; Group 4: 10 mg/kg i.p. Day 0 to Day 9, Day 24 (p=0.002) and Day 26 (p=0.024), hydrochloride, 10 mg/kg",significant reductions in mucositis; also recorded: significant improvement in mucositis scores
same,reduction of percentage of animals with ulcerative mucositis (score ≧3) compared to Group 1,"[2]; Group 4: 10 mg/kg i.p. Day 0 to Day 9, Days 24 to 28, first of three values",72.7%
same,reduction of percentage of animals with ulcerative mucositis (score ≧3) compared to Group 1,"[2]; Group 4: 10 mg/kg i.p. Day 0 to Day 9, Days 24 to 28, second of three values",83.8
same,reduction of percentage of animals with ulcerative mucositis (score ≧3) compared to Group 1,"[2]; Group 4: 10 mg/kg i.p. Day 0 to Day 9, Days 24 to 28, third of three values",77.8%
same,percentage of animal days with a mucositis score of ≧3,"[2]; Group 4: 10 mg/kg i.p. Day 0 to Day 9, entire study duration, vehicle control 63.0%",43.5%
same,maximum mean mucositis score,"[2]; Group 4: 10 mg/kg intraperitoneally Day 0 to Day 9, maximum on Day 16",3.0
same,maximum mean mucositis score,"[2]; Group 5: 20 mg/kg intraperitoneally Day 0 to Day 9, maximum on Day 16",3.1
same,percent body weight change among groups,"[2]; Groups 1 to 5, one-way ANOVA",no significant difference
same,percentage of animal days with a mucositis score of ≧3 compared to vehicle control,"[2]; other 3 treatment groups (Groups 2, 3 and 5), chi-squared analysis",not significantly different
"NCCCNCCSP(=O)(O)O [amifostine, Amifostine]","hypotension, share of patients",[3],62%
